{"source": "patent US7381265B2", "about": "“Method for crystallization of a weakly acidic and/or weakly basic compound” (Hoffmann-La Roche Inc., priority 2005, dated 2008)", "experiment": "potentiometric solubility-pH profile titration (pSol)", "format": "physicochemical", "details": "FIG. 8", "from_the_text": "The above described titration e.g. of a weak base B from high to low pH-values is used for potentiometric determination of solubility profiles according to the so-called “pSol method” (see e.g. Avdeef, A., 1998, loc. cit.). However, in pSol titrations the phenomenon of a “perfect” buffer system is not encountered frequently because in order to obtain good titration results it is advisable to use only small amounts of the compound under investigation. This leads to a situation where the whole amount of the compound is dissolved before the maximal effective concentration corresponding to point 2 in FIG. 1 is reached. This is illustrated in FIG. 3, where reduction of the pH-value leads along the solubility profile until reaching the point denoted as 2′ in FIG. 3. […] Therefore, the total concentration of the compound remains constant at a value CT.\nMeasurements of solubility-pH profiles were carried out on a “pSol” apparatus (see e.g. Avdeef, A., 2001, loc. cit.). The potentiometric solubility measurement with the pSol apparatus takes as input parameters the weighted amount of the said compound, the volume of the solution, the measured pKa and the measured (or calculated) octanol/water partition coefficient, logP. […]", "data": [{"smiles": "COc1ccc2c3c1O[C@H]1[C@@H](O)C=C[C@H]4[C@@H](C2)N(C)CC[C@@]341", "note": "[codeine]", "values": [{"measurement": "pH at which the precipitation begins", "setting": "total concentration about 58 mg/mL for the titration", "value": "about 7"}, {"measurement": "pH at which the precipitation begins", "setting": "total concentration of about 13 mg/mL for the titration", "value": "about 8"}]}]}
